Results on 2 compounds are retold here after patent US6818396B1, “Process for determination of the activity of a substance using an in vitro functional test” (priority 2000, dated 2004).

One experiment has as its target T1, native TEM-1 enzyme (Escherichia coli, UniProt P62593).
T1 construct: made in house
As to the kind of experiment: Characterization of inhibitor on native TEM-1 enzyme expressed in vitro, nitrocephine test. The experiment is classed as biochemical. Particulars: read-out: inhibition of native TEM-1 enzyme. The protocol:
For this 5 μl of a translation mixture expressing either the native enzyme or one of the two mutants were separately incubated at 25° C. for 3 minutes in a final volume of 500 μl of buffer I (final concentration: NaP 50 mM pH 7.0, 1.5 μM potential inhibitor #1). Then 100 μg/ml of nitrocephine and 0.25 mM final of DMSO were added, and the reaction was followed by spectrophotometry at 486 nm. The obtained results were expressed in maximum activity percentage measured on the enzyme in the absence of inhibitor.

A further experiment addresses T2, TEM-1 beta-lactamase (Escherichia coli, UniProt P62593).
T2 construct: made in house
It is filed as biochemical. Particulars: for reduction of the TEM-1 activity: inhibitor 21.5 μM final. The protocol:
A screening of new TEM-1 ? -lactamase inhibitors was carried out by the process of the invention. This enzyme was expressed in vitro as described by Zubay by using 300 μg of mRNA in a final translation volume of 5 ml. […] Then 3 μl of the translation mixture were added in each microtitration plaque well and the mixture was incubated 3 minutes at 25° C. The volume was then completed to 58 μl with a revelation solution (final concentration: NaP 40 mM pH 7.0, 100 μg/ml of nitrocephine and 0.25 mM DNSO). The reaction was followed by spectrophotometry at 486 nm. Three controls were carried out: one without translation extract (therefore without enzyme), one with the substrate alone, and one without any potential inhibitor.

T2 sequence (P62593 24-286 limits assumed): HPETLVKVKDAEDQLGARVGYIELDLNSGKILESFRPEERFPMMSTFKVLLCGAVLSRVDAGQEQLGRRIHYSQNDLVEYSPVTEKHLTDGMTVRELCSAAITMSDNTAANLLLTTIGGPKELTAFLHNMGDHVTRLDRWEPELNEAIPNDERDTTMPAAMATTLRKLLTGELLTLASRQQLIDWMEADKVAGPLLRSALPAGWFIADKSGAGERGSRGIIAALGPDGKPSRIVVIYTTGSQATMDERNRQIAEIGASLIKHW
T1 sequence (P62593 24-286 limits assumed): as above

What is called inhibition is the relative decrease from the control value, in per cent. `O=C(O)[C@H]1/C(=C/CO)O[C@@H]2CC(=O)N21` [inhibitor #1, clavulanic acid]: the inhibition at 1.5 µM on native TEM-1 enzyme is 87%. In addition, the “reduction of the TEM-1 activity versus control without inhibitor” value at TEM-1 beta-lactamase (inhibitor 0.4 μM final, 3 minutes at 25° C. preincubation) was found to be 52%. For the same compound, at TEM-1 beta-lactamase, the “reduction of the TEM-1 activity” value was determined as 80%.

`CC1(C)[C@H](C(=O)O)N2C(=O)C[C@H]2S1(=O)=O` [inhibitor #2, sulbactam]: the “reduction of the TEM-1 activity” value at TEM-1 beta-lactamase was 73%.
